The term Ki denotes the equilibrium dissociation constant of an inhibitor or competing ligand from its target.

The experiment concerns the target T1, GABA A receptor α5β3γ2 (hα5) (Homo sapiens, UniProt P18507+P31644).
T1 construct: expressed in transfected cells; host or cells: HEK293 (transiently transfected), membrane preparation
The experiment in a line: [3H]flumazenil competition binding assay, human GABA A α5β3γ2. As to conditions: displacement of [3H]flumazenil (0.5 nM) from HEK293 cell membranes expressing α5β3γ2; means of two determinations; read-out: Ki[nM] hα5. The method, then: The affinity of compounds at GABA A receptor subtypes was measured by competition for [3H]flumazenil (85 Ci/mmol; Roche) binding to HEK293 cells expressing rat (stably transfected) or human (transiently transfected) receptors of composition α1β3γ2, α2β3γ2, α3β3γ2 and α5β3γ2.
Cell pellets were suspended in Krebs-tris buffer (4.8 mM KCl, 1.2 mM CaCl2, 1.2 mM MgCl2, 120 mM NaCl, 15 mM Tris; pH 7.5; binding assay buffer), homogenized by polytron for ca. 20 sec on ice and centrifuged for 60 min at 4° C. (50000 g; Sorvall, rotor: SM24=20000 rpm). The cell pellets were resuspended in Krebs-tris buffer and homogenized by polytron for ca. 15 sec on ice. Protein was measured (Bradford method, Bio-Rad) and aliquots of 1 mL were prepared and stored at −80° C.
Radioligand binding assays were carried out in a volume of […] (96-well plates) which contained […] of cell membranes, [3H]flumazenil at a concentration of 1 nM for α1, α2, α3 subunits and 0.5 nM for α5 subunits and the test compound in the range of […]. Nonspecific binding was defined by 10^−5 M diazepam and typically represented less than 5% of the total binding. Assays were incubated to equilibrium for 1 hour at 4° C. and harvested onto GF/C uni-filters (Packard) by filtration using a Packard harvester and washing with ice-cold wash buffer (50 mM Tris; pH 7.5). After drying, filter-retained radioactivity was detected by liquid scintillation counting. Ki values were calculated using Excel-Fit (Microsoft) and are the means of two determinations.
In general terms: Displacement assays read how much labelled ligand stays bound in the presence of the test substance.
With `COc1ccc(-n2cnc(-c3c(-c4ccccc4)noc3C)c2)cc1` [Example 18, 4-[1-(4-Methoxy-phenyl)-1H-imidazol-4-yl]-5-methyl-3-phenyl-isoxazole], the Ki amounted to 21 nM.

On to `Cc1onc(-c2cccc(F)c2)c1-c1cn(-c2ccc(C(=O)NC3CC3)cc2)cn1` [Example 98, N-Cyclopropyl-4-{4-[3-(3-fluoro-phenyl)-5-methyl-isoxazol-4-yl]-imidazol-1-yl}-benzamide], for which the Ki stood at 17.7 nM. Under `Cc1onc(-c2ccc(Br)cc2)c1-c1cn(-c2ncccn2)cn1` [Example 51, 2-{4-[3-(4-Bromo-phenyl)-5-methyl-isoxazol-4-yl]-imidazol-1-yl}-pyrimidine] stands 28.5 nM. For `Cc1onc(-c2ccccc2)c1-c1cn(-c2ccc(C(=O)NCCCN3CCOCC3)cc2)cn1` [Example 73, 4-[4-(5-Methyl-3-phenyl-isoxazol-4-yl)-imidazol-1-yl]-N-(3-morpholin-4-yl-propyl)-benzamide], the Ki was found to be 14.6 nM. On to `Cc1onc(-c2ccccc2F)c1-c1cn(-c2ncccn2)cn1` [Example 39, 2-{4-[3-(2-Fluoro-phenyl)-5-methyl-isoxazol-4-yl]-imidazol-1-yl}-pyrimidine], for which the Ki is 18.3 nM. Under `Cc1onc(-c2ccccc2)c1-c1cn(-c2ccc(C(=O)NCC3CC3)cc2)cn1` [Example 71, N-Cyclopropylmethyl-4-[4-(5-methyl-3-phenyl-isoxazol-4-yl)-imidazol-1-yl]-benzamide] stands 16.7 nM; under `Cc1onc(-c2ccccc2)c1-c1cn(-c2ccc(C(F)(F)F)cc2)cn1` [Example 14, 5-Methyl-3-phenyl-4-[1-(4-trifluoromethyl-phenyl)-1H-imidazol-4-yl]-isoxazole], 30.7 nM.

With `CCOc1ccccc1-n1cnc(-c2c(-c3ccccc3)noc2C)c1` [Example 20, 4-[1-(2-Ethoxy-phenyl)-1H-imidazol-4-yl]-5-methyl-3-phenyl-isoxazole], the Ki worked out at 32.4 nM. On to `Cc1onc(-c2ccccc2)c1-c1cn(-c2ccc(C(=O)NC3CCC3)cc2)cn1` [Example 75, N-Cyclobutyl-4-[4-(5-methyl-3-phenyl-isoxazol-4-yl)-imidazol-1-yl]-benzamide], for which the Ki turned out to be 2.7 nM. For the molecule `Cc1onc(-c2ccccc2)c1-c1cn(-c2ccc([N+](=O)[O-])cc2)c(COCc2ccncc2)n1` [Example 165, 4-[4-(5-Methyl-3-phenyl-isoxazol-4-yl)-1-(4-nitro-phenyl)-1H-imidazol-2-ylmethoxymethyl]-pyridine], the Ki is 18.2 nM. In the case of `Cc1onc(-c2ccccc2)c1-c1cn(-c2ccc([N+](=O)[O-])cc2)c(CCl)n1` [Example 148, 4-[2-Chloromethyl-1-(4-nitro-phenyl)-1H-imidazol-4-yl]-5-methyl-3-phenyl-isoxazole], the Ki was determined as 23.3 nM. As for `Cc1onc(-c2ccccc2)c1-c1cn(-c2ccc(C(=O)NC3CCCC3)cc2)cn1` [Example 76, N-Cyclopentyl-4-[4-(5-methyl-3-phenyl-isoxazol-4-yl)-imidazol-1-yl]-benzamide], the inhibition constant (Ki) came to 10.9 nM. Under `Cc1onc(-c2ccccc2)c1-c1cn(-c2cccc(F)c2)cn1` [Example 4, 4-[1-(3-Fluoro-phenyl)-1H-imidazol-4-yl]-5-methyl-3-phenyl-isoxazole] stands 33.1 nM; under `Cc1onc(-c2ccccc2)c1-c1cn(-c2ccc([N+](=O)[O-])cc2)c(C=O)n1` [Example 149, 4-(5-Methyl-3-phenyl-isoxazol-4-yl)-1-(4-nitro-phenyl)-1H-imidazole-2-carbaldehyde], 29.9 nM; under “1-{4-(4-[5-Ethyl-3-(4-fluoro-phenyl)-isoxazol-4-yl]-imidazol-1-yl}-phenyl)-ethanone [Example 132]”, 4.7 nM. Next, `COc1ccc(-n2cnc(-c3c(-c4ccccc4F)noc3C)c2)cc1` [Example 38, 3-(2-Fluoro-phenyl)-4-[1-(4-methoxy-phenyl)-1H-imidazol-4-yl]-5-methyl-isoxazole]: 24 nM.

The values above are taken from patent US7414061B2, “Aryl-isoxazol-4-yl-imidazole derivatives” (Hoffmann-La Roche Inc., priority 2005, dated 2008).
